Assays:
[1] = tested on: Clostridium acetobutylicum ATCC 824; assay: Growth (optical density at 600 nm) of sequential batch cultures; assay type: cell-based
Procedure: (§1) Bacterial strains and media. Clostridium acetobutylicum ATCC 824 and C. beijerinckii NCIMB 8052 are available from several commercial microbial culture collections including the American Type Culture Collection (ATCC), Manassas, Va., USA. The strains were grown at 30° C. or 37° C. in YE broth, which contained, per liter: 5.0 g yeast extract, 2.5 g casamino acids, 1.0 g L-asparagine, 0.5 g cysteine.HCl, 56 mg K2HPO4, 56 mg KH2PO4, 82 mg anhydrous MgSO4, 8 mg FeSO4.H2O, 6 mg MnSO4.H2O and 10 g glucose. Alternatively, strains were grown in YEPG broth, which was identical to YE expect that K2HPO4 and KH2PO4 were increased to 145 mg/L each and glucose was increased to 60 g/L. The pH of the media was adjusted to 7.2 using 45% KOH prior to sterilization by autoclaving. Media were solidified by addition of 1.5% Bacteriological Agar, Actimedia Manufacturers, Inc., Lansing, Mich. All cultures were grown in anaerobic conditions using the AnaeroPack System, Mitsubishi Gas Chemical Co., Inc., Japan, and GasPak EZ Gas Generating Sachets, Becton, Dickinson and Co., Sparks, Md. Spore stocks were kept at room temperature on agar-solidified media and were activated by suspending spores in 0.5 mL to 1.0 mL of medium followed by heating for 10 min at 80° C. before inoculation into growth medium.
(§2) Growth and pH measurements. Growth of bacterial cultures was measured spectrophotometrically using optical density at 600 nm and pH of cell-free culture supernatants was measured using a hand-held Shindengen ISFET pH Meter KS501, Shendengen Electric Manufacturing Co., Ltd., Bannockburn, Ill.
(§3) Effect of peptide SEQ ID NO:143 addition on sequential batch cultures of C. acetobutylicum ATCC 824 grown at 30° C. Spores of C. acetobutylicum ATCC 824 were germinated and grown overnight at 30° C. under anaerobic conditions in YEPG medium. After about 24 h of growth, 75 μL of the culture was transferred (transfer 1) to each of four flasks that contained 10 mL of YEPG and either had no treatment or were treated with peptide SEQ ID NO:143 (see Table 8 and FIG. 1) at 1 nM, 10 nM or 50 nM. Thereafter, 75 μL of each culture was transferred, at the same time, every 24-48 h to 10 mL of fresh YEPG that contained the same peptide treatment or no treatment. Each culture was stopped after 96 hours of incubation and optical density, pH and ceric ion reactive chemicals were measured. Sequential batch culturing was continued through 5 transfers at which point the untreated culture and those treated with 1 nM and 10 nM of peptide SEQ ID NO:143 had stopped growing (Table 9).
(§4) Effect of peptide SEQ ID NO:143 addition on sequential batch cultures of C. acetobutylicum ATCC 824 grown at 37° C. Spores of C. acetobutylicum ATCC 824 were germinated and grown overnight at 37° C. under anaerobic conditions in YEPG medium that either contained 50 nM of peptide SEQ ID NO:143 or no added peptide. After about 24 h of growth, 10 μL of the untreated culture was transferred (transfer 1) to each of two flasks that contained 10 mL of YEPG with either no treatment or with 50 nM peptide SEQ ID NO:143. At the same time, 10 μL of the culture that was germinated in the presence of peptide SEQ ID NO:143 was also transferred to 10 mL of YEPG that contained 50 nM of peptide SEQ ID NO:143. Thereafter, 10 μL of each culture was transferred, at the same time, every 24-48 h to 10 mL of fresh YEPG that contained the same peptide treatment or no treatment. Each culture was stopped after 72 hours if incubation and optical density, pH and ceric ion reactive chemicals were measured. Sequential batch culturing was continued through 3 transfers at which point the untreated culture and the culture that was germinated and transferred in 50 nM of peptide were still growing, while the culture that was treated with peptide after germination had stopped growing (Table 15 and FIG. 7).

[2] = tested on: Clostridium acetobutylicum ATCC 824; assay: Final pH of cell-free culture supernatants of sequential batch cultures; assay type: cell-based
Procedure: as §1, §2, §3, §4

C. acetobutylicum = assay: Estimate of extended serial propagation in continuous culture from sequential batch transfers; set-up: species or system Clostridium acetobutylicum; conditions: dilution rate 0.05/hour, from about 140 hours without peptide
Procedure: Under these experimental conditions, and knowledge of the growth of C. acetobutylicum in culture, it was determined that each sequential transfer was equivalent to about seven bacterial generations ([…], Applied and Environmental Microbiology 59:4198-4202, 1993). […] An estimate of extended serial propagation in continuous culture may be expressed as extended time in continuous culture by taking the dilution rate into account. In continuous culture, the time for one generation is equal to the inverse of the dilution rate.

[3] = 1 nM peptide, transfer 1, 96 h, 30° C.
[4] = 1 nM peptide, transfer 2, 96 h, 30° C.
[5] = 1 nM peptide, transfer 3, 96 h, 30° C.
[6] = 1 nM peptide, transfer 4, 96 h, 30° C.
[7] = 1 nM peptide, transfer 5, 96 h, 30° C.
[8] = 10 nM peptide, transfer 1, 96 h, 30° C.
[9] = 10 nM peptide, transfer 2, 96 h, 30° C.
[10] = 10 nM peptide, transfer 3, 96 h, 30° C.
[11] = 10 nM peptide, transfer 4, 96 h, 30° C.
[12] = 50 nM peptide added after germination, transfer 1, 72 h, 37° C.
[13] = 50 nM peptide added after germination, transfer 2, 72 h, 37° C.
[14] = 50 nM peptide added after germination, transfer 3, 72 h, 37° C.
[15] = 50 nM peptide, transfer 1, 96 h, 30° C.
[16] = 50 nM peptide, transfer 2, 96 h, 30° C.
[17] = 50 nM peptide, transfer 3, 96 h, 30° C.
[18] = 50 nM peptide, transfer 4, 96 h, 30° C.
[19] = 50-50: germinated and transferred in 50 nM peptide, transfer 1, 72 h, 37° C.
[20] = 50-50: germinated and transferred in 50 nM peptide, transfer 2, 72 h, 37° C.
[21] = 50-50: germinated and transferred in 50 nM peptide, transfer 3, 72 h, 37° C.
[22] = 50-50: spores germinated in 50 nM peptide, transfer 0 (germinated culture), 72 h, 37° C.

## SYPGWSW [Peptide SEQ ID NO:143]
[1]; 1 nM peptide, 30° C., untreated culture did not grow after the second transfer
  Last sequential transfer through which growth was allowed: third transfer
[1]; [3]
  Optical density at 600 nm of culture broths: 0.005
[1]; [4]
  Optical density at 600 nm of culture broths: 2.274
[1]; [5]
  Optical density at 600 nm of culture broths: 2.165
[1]; [6]
  Optical density at 600 nm of culture broths: 0.044
[1]; [7]
  Optical density at 600 nm of culture broths: 0.004
[1]; 10 nM peptide, 30° C.
  Last sequential transfer through which growth was allowed: fourth transfer
[1]; [8]
  Optical density at 600 nm of culture broths: 2.001
[1]; [9]
  Optical density at 600 nm of culture broths: 2.245
[1]; [10]
  Optical density at 600 nm of culture broths: 2.379
[1]; [11]
  Optical density at 600 nm of culture broths: 2.266
[1]; 10 nM peptide, transfer 5, 96 h, 30° C.
  Optical density at 600 nm of culture broths: 0.028
[1]; [12]
  Optical density at 600 nm of culture broths: 1.891
[1]; [13]
  Optical density at 600 nm of culture broths: 0.011
[1]; [14]
  Optical density at 600 nm of culture broths: 0.100
[1]; 50 nM peptide, 30° C.
  Last sequential transfer through which growth was extended: fifth transfer
[1]; [15]
  Optical density at 600 nm of culture broths: 1.879
[1]; [16]
  Optical density at 600 nm of culture broths: 2.089
[1]; [17]
  Optical density at 600 nm of culture broths: 2.313
[1]; [18]
  Optical density at 600 nm of culture broths: 2.187
[1]; 50 nM peptide, transfer 5, 96 h, 30° C.
  Optical density at 600 nm of culture broths: 2.173
[1]; 30° C., sequential batch cultures
  Number of sequential transfers compared with a culture without added peptide: at least four more times
[1]; [19]
  Optical density at 600 nm of culture broths: 1.715
[1]; [20]
  Optical density at 600 nm of culture broths: 1.858
[1]; [21]
  Optical density at 600 nm of culture broths: 1.485
[1]; [22]
  Optical density at 600 nm of culture broths: 2.121
[2]; [3]
  Final pH of culture broths: 6.0
[2]; [4]
  Final pH of culture broths: 4.4
[2]; [5]
  Final pH of culture broths: 4.4
[2]; [6]
  Final pH of culture broths: 6.0
[2]; [7]
  Final pH of culture broths: 6.0
[2]; [8]
  Final pH of culture broths: 4.4
[2]; [9]
  Final pH of culture broths: 4.4
[2]; [10]
  Final pH of culture broths: 4.5
[2]; [11]
  Final pH of culture broths: 4.5
[2]; 10 nM peptide, transfer 5, 96 h, 30° C., listed as SEQ ID NO: 143
  Final pH of culture broths: 6.0
[2]; 10 nM peptide, transfer 5, 96 h, 30° C., listed as SEQ ID NO:143
  Final pH of culture broths: 5.9
[2]; [12]
  Final pH of culture broths: 4.4
[2]; [13]
  Final pH of culture broths: 6.0
[2]; [14]
  Final pH of culture broths: 5.5
[2]; [15]
  Final pH of culture broths: 4.4
[2]; [16]
  Final pH of culture broths: 4.6
[2]; [17]
  Final pH of culture broths: 4.5
[2]; [18]
  Final pH of culture broths: 4.4
[2]; 50 nM peptide, transfer 5, 96 h, 30° C., listed as SEQ ID NO: 143
  Final pH of culture broths: 4.3
[2]; 50 nM peptide, transfer 5, 96 h, 30° C., listed as SEQ ID NO:143
  Final pH of culture broths: remained low
[2]; [19]
  Final pH of culture broths: 4.5
[2]; [20]
  Final pH of culture broths: 3.8
[2]; [21]
  Final pH of culture broths: 4.6
[2]; [22]
  Final pH of culture broths: 4.1
C. acetobutylicum
  Expected time in continuous culture with peptide: about 700 hours

Reference: patent publication US20120107916A1, “METHODS AND COMPOSITIONS FOR AFFECTING THE DIFFERENTIATION OF CLOSTRIDIA IN CULTURE” (priority 2009, published 2012)
